The text below walks through data of PMC7180767, “Influence of Selected Antidepressants on the Ciliated Protozoan Spirostomum ambiguum: Toxicity, Bioaccumulation, and Biotransformation Products” (Molecules, 2020).

The test system of one series is Ceriodaphnia dubia. The conditions noted are these: cited from earlier work; for toxicity: endpoint not stated.
In a further series the test system is Daphnia magna. The conditions noted are these: endpoint not stated; cited from earlier work.
Series [1] relates to Spirostomum ambiguum.
Another series relates to M. galloprovincialis. The conditions noted are these: fluoxetine 75 ng/L nominal, cited from earlier work.
The subject of another series is Thamnocephalus platyurus. The conditions noted are these: cited from earlier work.
For a further series, the system named is Gammarus pulex. Particulars: cited from earlier work.
The conditions of series [2]: ref www.drugbank.ca, cited from earlier work; for Log P: octanol-water partition coefficient.
In another series the test system is Notonecta glauca. The conditions noted are these: cited from earlier work.
In series [3] the test system is Spirostomum ambiguum. The source holds these as a separate data set.
For a further series, the system named is Planorbid sp. The conditions noted are these: in vivo; cited from earlier work.
Series [4] relates to Spirostomum ambiguum. The experiment in a line: microbe, parasite or virus in culture.
The nature of the next series: in vitro. Particulars: for LC50 at 1 d / LC50 at 2 d / LC50 at 7 d: Spirostomum ambiguum.
The next series concerns Oncorhynchus mykiss. Particulars: cited from earlier work.
The subject of series [5] is Hydropsyche sp. and Erpobdella octoculata. The conditions noted are these: effluent reach stream; cited from earlier work.
The test system of the next series is Leishmania donovani. The conditions noted are these: cited from earlier work.
Series [6] relates to Spirostomum ambiguum. The source holds these as a separate data set.
Setting [7] is: Spirostomum ambiguum, 7 d, 10 µg/L, pH 7.4.
[8] abbreviates: Spirostomum ambiguum, 7 d, 25 µg/L, pH 7.4.
Setting [9] is: Spirostomum ambiguum, 8 d, 10 µg/L, pH 7.4.
Setting [10] is: Spirostomum ambiguum, 8 d, 25 µg/L, pH 7.4.
[11] abbreviates: Spirostomum ambiguum, 12 d, 10 µg/L, pH 7.4.
Where [12] appears, read: Spirostomum ambiguum, 12 d, 25 µg/L, pH 7.4.

Values after ≈ are worked out from the molar mass of the structure shown. Where two headings read alike, the source gives them in different places.

For the compound `CNCCC(Oc1ccc(C(F)(F)F)cc1)c1ccccc1` (stereo not shown) [Fluoxetine, fluoxetine], the toxicity in the series with Ceriodaphnia dubia is reported as 0.23 mg/L; in the series on Daphnia magna, 0.82 mg/L; in the series with Thamnocephalus platyurus (endpoint not stated), 0.85 mg/L. Moreover, the EC20 in the series with Spirostomum ambiguum [1] (1 d, pH = 6.0) was 2.03 ± 0.82 µg/mL (≈ 6.56 µM); in the series on Spirostomum ambiguum [1] (1 d, pH = 6.5), 1.16 ± 0.14 µg/mL (≈ 3.75 µM); in the series on Spirostomum ambiguum [1] (1 d, pH = 7.4), 1.21 ± 0.04 µg/mL (≈ 3.91 µM); in the series on Spirostomum ambiguum [1] (2 d, pH = 6.0), 1.72 ± 0.51 µg/mL (≈ 5.56 µM); in the series with Spirostomum ambiguum [1] (2 d, pH = 6.5), 0.98 ± 0.16 µg/mL (≈ 3.17 µM); in the series with Spirostomum ambiguum [1] (2 d, pH = 7.4), 1.06 ± 0.11 µg/mL (≈ 3.43 µM). The EC20 in the series with Spirostomum ambiguum [1] (7 d, pH = 6.0) was found to be 0.86 ± 0.15 µg/mL (≈ 2.78 µM); with Spirostomum ambiguum [1] (7 d, pH = 6.5), 0.58 ± 0.07 µg/mL (≈ 1.88 µM); in the series with Spirostomum ambiguum [1] (7 d, pH = 7.4), 0.70 ± 0.13 µg/mL (≈ 2.26 µM). Also, the figures for the concentration in mussel with M. galloprovincialis (after 3 days) and in the series on M. galloprovincialis (after 15 days) were 2.53 ng/g dry weight and 9.31 ng/g, respectively. Further, the BCF in the series on Gammarus pulex is 185,900 L/kg; in the series on Notonecta glauca, 1387 L/kg; in the series with Planorbid sp., 3000 L/kg. Also, the “Log P” value in [2] is 4.09. For the same compound, in the series on Spirostomum ambiguum [3] (S. ambiguum, uptake phase), the “BCF values reached during the uptake phase” value is reported as ≤ 1000 L/kg.

`NCCC(Oc1ccc(C(F)(F)F)cc1)c1ccccc1` (stereo not shown) [norfluoxetine]: the concentration in mussel in the series on M. galloprovincialis (after 3 days) is listed as 3.06 ng/g dry weight; in the series on M. galloprovincialis (after 15 days), 11.65 ng/g.

`Fc1ccc([C@@H]2CCNC[C@H]2COc2ccc3c(c2)OCO3)cc1` [Paroxetine, paroxetine]: the toxicity in the series with Ceriodaphnia dubia was 0.58 mg/L; with Daphnia magna, 6.3 mg/L. Besides, the EC50 in the series on Spirostomum ambiguum [4] (24 h, 1 d, pH = 6.0) was 3.15 ± 1.68 µg/mL (≈ 9.56 µM); with Spirostomum ambiguum [4] (24 h, 1 d, pH = 6.5) it was 1.37 ± 0.03 µg/mL (≈ 4.16 µM); in the series with Spirostomum ambiguum [4] (24 h, 1 d, pH = 7.4), 1.15 ± 0.29 µg/mL (≈ 3.49 µM); in the series on Spirostomum ambiguum [4] (48 h, 2 d, pH = 6.0) it was 2.07 ± 0.73 µg/mL (≈ 6.28 µM); in the series with Spirostomum ambiguum [4] (48 h, 2 d, pH = 6.5), 1.24 ± 0.17 µg/mL (≈ 3.76 µM); with Spirostomum ambiguum [4] (48 h, 2 d, pH = 7.4), 1.1 ± 0.29 µg/mL (≈ 3.34 µM). The EC50 worked out at 1.32 ± 0.13 µg/mL (≈ 4.01 µM) in the series with Spirostomum ambiguum [4] ([…], 7 d, pH = 6.0); 0.76 ± 0.26 µg/mL (≈ 2.31 µM) in the series on Spirostomum ambiguum [4] ([…], 7 d, pH = 6.5); 0.74 ± 0.06 µg/mL (≈ 2.25 µM) with Spirostomum ambiguum [4] ([…], 7 d, pH = 7.4). The LC50 at 1 d in “in vitro” (pH 6) was found to be 4.53 ± 0.55 µg/mL (≈ 13.8 µM); in the series “in vitro” (pH 6.5), 1.4 ± 0.06 µg/mL (≈ 4.25 µM); in the series “in vitro” (pH 7.4) it was 1.17 ± 0.29 µg/mL (≈ 3.55 µM). The LC50 at 2 d in “in vitro” (pH 6) is 2.55 ± 0.75 µg/mL (≈ 7.74 µM); in “in vitro” (pH 7.4) it was 1.15 ± 0.3 µg/mL (≈ 3.49 µM). In addition, the LC50 at 7 d in “in vitro” (pH 6) is 1.44 ± 0.21 µg/mL (≈ 4.37 µM); in the series “in vitro” (pH 6.5), 0.81 ± 0.31 µg/mL (≈ 2.46 µM); in the series “in vitro” (pH 7.4), 0.77 ± 0.1 µg/mL (≈ 2.34 µM). The LC50 in the series “in vitro” (pH 6.5) worked out at 1.27 ± 0.16 µg/mL (≈ 3.86 µM). The “Bioconcentration factor in S. ambiguum” value in the series with Spirostomum ambiguum [3] (setting [7]) is given as 905 L/kg; with Spirostomum ambiguum [3] (setting [8]), 794 L/kg; in the series on Spirostomum ambiguum [3] (setting [9]) it was 806 L/kg; with Spirostomum ambiguum [3] (setting [10]), 934 L/kg; in the series with Spirostomum ambiguum [3] (setting [11]), 3649 L/kg; with Spirostomum ambiguum [3] (setting [12]) it was 1234 L/kg. For the same compound, the “Concentration in S. ambiguum” value with Spirostomum ambiguum [3] (setting [7]) is 0.45 µg/g; in the series with Spirostomum ambiguum [3] (setting [8]) it was 1.19 µg/g; with Spirostomum ambiguum [3] (setting [9]), 0.40 µg/g; in the series with Spirostomum ambiguum [3] (setting [10]), 1.40 µg/g; in the series with Spirostomum ambiguum [3] (setting [11]), 1.82 µg/g; in the series on Spirostomum ambiguum [3] (setting [12]), 1.85 µg/g. Moreover, the “BCF values reached during the uptake phase” value in the series on Spirostomum ambiguum [3] (Spirostomum ambiguum, pH 7.4) was ≤ 1000 L/kg.

On to `CN[C@H]1CC[C@@H](c2ccc(Cl)c(Cl)c2)c2ccccc21` [Sertraline, sertraline], for which the “48-h LC50” value in the series with Ceriodaphnia dubia is 0.12 µg/mL. Moreover, the “96-h LC50” value in the series on Oncorhynchus mykiss was 0.38 µg/mL. Further, the EC20 with Spirostomum ambiguum [1] (Spirostomum ambiguum, 1 d, pH 6) was 0.46 ± 0.18 µg/mL (≈ 1.5 µM); in the series with Spirostomum ambiguum [1] (Spirostomum ambiguum, 1 d, pH 6.5) it was 0.28 ± 0.04 µg/mL (≈ 0.914 µM); with Spirostomum ambiguum [1] (Spirostomum ambiguum, 1 d, pH 7.4), 0.29 ± 0.01 µg/mL (≈ 0.947 µM); in the series with Spirostomum ambiguum [1] (Spirostomum ambiguum, 2 d, pH 6), 0.19 ± 0.03 µg/mL (≈ 0.62 µM); in the series on Spirostomum ambiguum [1] (Spirostomum ambiguum, 2 d, pH 6.5), 0.22 ± 0.08 µg/mL (≈ 0.718 µM); with Spirostomum ambiguum [1] (Spirostomum ambiguum, 2 d, pH 7.4) it was 0.29 ± 0.01 µg/mL (≈ 0.947 µM). Besides, the EC20 in the series on Spirostomum ambiguum [1] (Spirostomum ambiguum, 7 d, pH 6) was found to be 0.20 ± 0.05 µg/mL (≈ 0.653 µM); in the series with Spirostomum ambiguum [1] (Spirostomum ambiguum, 7 d, pH 6.5), 0.13 ± 0.03 µg/mL (≈ 0.425 µM); in the series on Spirostomum ambiguum [1] (Spirostomum ambiguum, 7 d, pH 7.4), 0.15 ± 0.01 µg/mL (≈ 0.49 µM). Moreover, in the series on Thamnocephalus platyurus, the “24-h LC50” value was 0.6 µg/mL. Further, the “Log P” value in series [2] is 5.06. The LC50 at 1 d in “in vitro” (pH 6) came out at 0.85 ± 0.09 µg/mL (≈ 2.78 µM); in the series “in vitro” (pH 6.5), 0.47 ± 0.11 µg/mL (≈ 1.53 µM); in “in vitro” (pH 7.4) it was 0.41 ± 0.05 µg/mL (≈ 1.34 µM). In addition, the LC50 at 2 d in “in vitro” (pH 6) stood at 0.49 ± 0.1 µg/mL (≈ 1.6 µM); in “in vitro” (pH 6.5), 0.33 ± 0.06 µg/mL (≈ 1.08 µM); in the series “in vitro” (pH 7.4), 0.35 ± 0.01 µg/mL (≈ 1.14 µM). The LC50 at 7 d in “in vitro” (pH 6) came to 0.33 ± 0.08 µg/mL (≈ 1.08 µM); in “in vitro” (pH 6.5), 0.18 ± 0.04 µg/mL (≈ 0.588 µM); in the series “in vitro” (pH 7.4), 0.27 ± 0.03 µg/mL (≈ 0.882 µM). The “time of highest concentration in cells” value in the series with Spirostomum ambiguum [3] (Spirostomum ambiguum, 100 µg/L, pH 7.4) is 24 h. Also, the “BCF values reached during the uptake phase” value in the series with Spirostomum ambiguum [3] (Spirostomum ambiguum, pH 7.4) was 34,092 L/kg. The “fall of intracellular concentration in the depuration phase, of the highest concentration” value in the series on Spirostomum ambiguum [3] (Spirostomum ambiguum, pH 7.4) amounted to 40%. For the same compound, the “bioaccumulation factor (BCF)” value in [5] is “higher than 2000 L/kg”. In addition, the “activity against Leishmania donovani” value with Leishmania donovani is on record as “high activity”. Further, the BCF in the series on Planorbid sp. is reported as 990 L/kg.

Take `CN1CCN2c3ccccc3Cc3ccccc3C2C1` (stereo not shown) [Mianserin, mianserin]: in the series with Spirostomum ambiguum [6], the “number of transformation products observed” value was “Five”. In addition, in [2] (acid dissociation constant), the pKa is listed as 6.92. In addition, the “Log P” value in series [2] is reported as 3.83. Also, in the series with Spirostomum ambiguum [3], the “time of highest concentration in S. ambiguum cells” value is listed as “two days”. In addition, the “Concentration in S. ambiguum” value in the series with Spirostomum ambiguum [3] (Spirostomum ambiguum, 1 d, 100 µg/L, pH 7.4) was 229.05 µg/g. For the same compound, the “BCF values reached during the uptake phase” value in the series with Spirostomum ambiguum [3] (Spirostomum ambiguum, pH 7.4) worked out at 4939 L/kg.
